Where “and” joins values, the source holds several entries; their conditions need not be identical. Equal values may be shown once.
melting point	SMILES
73 °C	Cc1cc(Br)c(C)cc1Br [2,5-dibromo-p-xylene]
6 °C	Cc1cc(Br)ccc1Br [2,5-dibromotoluene]
154 °C	OB(O)c1cc(Cl)cnc1Cl [2,5-dichloropyridine-3-boronic acid]
61 °C	Clc1ccc(Cl)nc1 [2,5-dichloropyridine]
112 °C	NC(=O)c1cc(F)ccc1F [2,5-difluorobenzamide]
99 °C	O=Cc1cc(O)ccc1O [2,5-dihydroxybenzaldehyde]
127 °C	O=C(O)Cc1cc(O)ccc1O [2,5-dihydroxyphenylacetic_acid]
114 °C	COc1ccc(OC)c(S(=O)(=O)Cl)c1 [2,5-dimethoxybenzenesulfonyl chloride]
-62 °C	Cc1ccc(C)o1 [2,5-dimethylfuran]
253 °C	Cc1cc2[nH]c(C)cc(=O)n2n1 [2,5-dimethylpyrazolo[1,5-a]pyrimidin-7(4h)-one]
150 °C	OB(O)c1c(C(F)(F)F)cccc1C(F)(F)F [2,6-bis(trifluoromethyl)benzeneboronic acid]
80 °C	Nc1c(Br)cccc1Br [2,6-dibromoaniline]
110 °C	Cc1cc(Cl)nc(Cl)c1C#N [2,6-dichloro-3-cyano-4-methylpyridine]
178 °C	O=[N+]([O-])c1cc(Cl)[n+]([O-])c(Cl)c1 [2,6-dichloro-4-nitropyridine n-oxide]
10 °C	COc1c(Cl)cccc1Cl [2,6-dichloroanisole]
199 °C	NC(=O)c1c(Cl)cccc1Cl [2,6-dichlorobenzamide]
17 °C	O=C(Cl)c1c(Cl)cccc1Cl [2,6-dichlorobenzoyl chloride]
53 °C	N#Cc1c(F)ccc([N+](=O)[O-])c1F [2,6-difluoro-3-nitrobenzonitrile]
101 °C	O=C(O)Cc1c(F)cccc1F [2,6-difluorophenylacetic acid]
224 °C	Oc1ccc2cc(O)ccc2c1 [2,6-dihydroxynaphthalene]
107 °C	COc1cccc(OC)c1B(O)O [2,6-dimethoxybenzeneboronic acid]
85 °C	COc1cccc(OC)c1CN [2,6-dimethoxybenzylamine]
81 °C	COc1cccc(OC)c1OCC(=O)O [2,6-dimethoxyphenoxyacetic acid]

melting point	SMILES
97 °C	Cc1cc(I)cc(C)c1O [2,6-dimethyl-4-iodophenol]
134 °C	Cc1cc(=O)cc(C)o1 [2,6-dimethyl-4-pyrone]
43 °C	N#Cc1ccccc1N1CCCCC1 [2-(1-piperidinyl)benzonitrile]
92 °C	O=[N+]([O-])c1ccc(Cc2ccccn2)c([N+](=O)[O-])c1 [2-(2,4-Dinitrobenzyl)pyridine]
132 °C	Oc1ccccc1-c1nc2ccccc2s1 [2-(2-hydroxyphenyl)benzothiazole]
97.8 °C	Cc1ccc(-n2ncccc2=O)cc1 [2-(4-Methylphenyl)pyridazin-3(2H)-one]
120 °C	CC(C)(Oc1ccc(Cl)cc1)C(=O)O [2-(4-chlorophenoxy)isobutyric acid]
184 °C	O=C(O)c1cccnc1Oc1ccc(F)cc1 [2-(4-fluorophenoxy)nicotinic acid]
206 °C	O=C(O)c1ccccc1/N=N/c1ccc(O)cc1 [2-(4-hydroxyphenyl-azo)benzoic acid]
140 °C	Cc1ccc(C(=O)c2ccccc2C(=O)O)cc1 [2-(4-methylbenzoyl)benzoic acid]
127 °C	Nc1cc(C(F)(F)F)ccc1N1CCOCC1 [2-(4-morpholinyl)-5-(trifluoromethyl)aniline]
138 °C	Cc1ccc(C(=O)c2ccccc2C(=O)O)cc1 [2-(4-toluoyl)benzoic acid]
176 °C	Cc1ccc(O)c(-c2ccno2)c1 [2-(5-isoxazolyl)-4-methylphenol]
-20 °C	NCc1ccccn1 [2-(aminomethyl)pyridine]
173 °C	CC(C)(C)OC(=O)Nc1ccc(C#N)cn1 [2-(boc-amino)-5-cyanopyridine]
83 °C	O=C(CBr)c1ccc2ccccc2c1 [2-(bromoacetyl)naphthalene]
206 °C	O=C(O)c1ccccc1N=Nc1ccc(O)cc1 [2-(p-hydroxyphenylazo)benzoic acid]
55 °C	CC(=O)c1ccc2ccccc2c1 [2-Acetylnaphthalene]
140 °C	O=C(O)c1ccccc1Cl [2-Chlorobenzoic acid]
192 °C	O=C1C=C(O)C(=O)c2ccccc21 [2-Hydroxy-1,4-naphthoquinone]
149 °C	O=C(O)Cc1ccccc1O [2-Hydroxyphenylacetic acid]
118 °C	COc1ccc([N+](=O)[O-])cc1N [2-Methoxy-5-nitroaniline]
129 °C	Cc1cc(O)ccc1O [2-Methylbenzene-1,4-diol]

The remaining lines, values behind:

SMILES	melting point
O=C(O)c1cc(Cl)ccc1Cl [2,5-dichlorobenzoic acid]	153 °C
O=C(O)c1cc(Cl)ccc1Cl [2,5-dichlorobenzoic_acid]	156 °C
COc1ccc(OC)c(C=O)c1 [2,5-dimethoxybenzaldehyde]	52 °C
C=C(C)CCC(=C)C [2,5-dimethyl-1,5-hexadiene]	-75 °C
C/C(C)=CC=C(/C)C [2,5-dimethyl-2,4-hexadiene]	13 °C
CC(=O)CCC(C)=O [2,5-hexanedione]	-6 °C
Oc1c(Cl)cccc1Cl [2,6-Dichlorophenol]	68.5 °C
Nc1c(Cl)cccc1Cl [2,6-dichloroaniline]	40 °C
N#Cc1c(Cl)cccc1Cl [2,6-dichlorobenzonitrile]	145 °C
Oc1c(Cl)cccc1Cl [2,6-dichlorophenol] [listing 1 of 2 here]	67 °C and 68.5 °C and 65 °C (2×)
Oc1c(Cl)cccc1Cl [2,6-dichlorophenol] [listing 2 of 2 here]	67 °C
NS(=O)(=O)c1c(F)cccc1F [2,6-difluorobenzenesulfonamide]	190 °C
Cc1cccc(C)c1N [2,6-dimethylaniline]	12 °C
O=C1c2ccccc2C(=O)N1c1nc2ccccc2[nH]1 [2-(1H-Benzimidazol-2-yl)-1H-isoindole-1,3(2H)-dione]	274 °C
Nc1ccccc1C1C=c2ccccc2=N1 (stereo not drawn) [2-(1H-Indol-2-yl)anilin]	153 °C
CC(Oc1cc(Cl)c(Cl)cc1Cl)C(=O)O (stereo not drawn) [2-(2,4,5-Trichlorophenoxy)propanoic acid]	176 °C
c1ccc2cc(C3CNCCN3)ccc2c1 (stereo not drawn) [2-(2-naphthyl)piperazine]	102 °C
c1csc(C2CNCCN2)c1 (stereo not drawn) [2-(2-thienyl)piperazine]	83 °C
CC(Oc1cccc(Cl)c1)C(=O)O (stereo not drawn) [2-(3-chlorophenoxy)propionic acid]	115 °C
Nc1ccc(C(O)(C(F)(F)F)C(F)(F)F)cc1 [2-(4-aminophenyl)-1,1,1,3,3,3-hexafluoro-2-propanol]	150 °C
NCCc1ccc(-c2ccccc2)cc1 [2-(4-biphenylyl)ethylamine]	52 °C
CNCC(O)c1ccccc1 (stereo not drawn) [2-(Methylamino)-1-phenylethanol]	75 °C
O=C(CBr)c1cccs1 [2-(bromoacetyl)thiophene]	31 °C
C(#Cc1ccc2ccccc2c1)c1ccccc1 [2-(phenylethynyl)naphthalene]	117 °C
CC(C)(N)CO [2-Amino-2-methylpropan-1-ol]	30 °C
CC(N)(CO)CO [2-Amino-2-methylpropane-1,3-diol]	111 °C

SMILES	melting point
N#Cc1c(N)sc2c1CCCC2 [2-Amino-4,5,6,7-tetrahydrobenzo(b)thiophene-3-carbonitrile]	143 °C
CP(=O)(O)CC[C@@H](N)C(=O)O [2-Amino-4-(Hydroxymethyl-Phosphinyl)Butanoic Acid]	230 °C
NCCO [2-Aminoethanol]	11 °C
CC12CCC(C(C(c3ccccc3)c3ccccc3)C1=O)C2(C)C (stereo not drawn) [2-Bornanone, 3-(diphenylmethyl)-]	107 °C
CCCCOCCO [2-Butoxyethanol]	-75 °C
Nc1ccc([N+](=O)[O-])cc1Cl [2-Chloro-4-nitroaniline]	108 °C
CCc1ccc2c(c1)C(=O)c1ccccc1C2=O [2-Ethylanthraquinone]	109 °C
CCC1CO1 (stereo not drawn) [2-Ethyloxirane]	-60 °C
Nc1ccccc1F [2-Fluoroaniline]	-34.6 °C
O=Cc1ccco1 [2-Furaldehyde]	-36 °C
CC(C)I [2-Iodopropane]	-90 °C
COC(C)(C)C [2-Methoxy-2-methylpropane]	-109 °C
C=C(C)CC [2-Methylbut-1-ene]	-137 °C
C/C(C)=CCC [2-Methylpent-2-ene]	-135 °C
CCCCCCCCCCCCCC(C)C [2-Methylpentadecane]	-7 °C
Nc1ccccc1[N+](=O)[O-] [2-Nitroaniline]	72 °C
O=[N+]([O-])c1ccco1 [2-Nitrofuran]	31 °C
O=[N+]([O-])c1ccccc1O [2-Nitrophenol]	44 °C
CC(=O)C(=O)O [2-Oxopropanoic acid]	12 °C
C1=C(c2ccccc2)Cc2ccccc21 [2-Phenylindene]	167 °C
O/N=C(/C=C/c1ccccc1)c1ccccc1 [2-Propen-1-one, 1,3-diphenyl-, oxime, (E,Z)-]	116 °C
CCCOCCO [2-Propoxyethanol]	-75 °C
O=S(=O)([O-])CCN1CC[NH+](CCO)CC1 [2-[4-(2-Hydroxyethyl)piperazin-4-ium-1-yl]ethanesulfonate]	236 °C
CCCC(C)(COC(N)=O)COC(N)=O [2-[(Carbamoyloxy)methyl]-2-methylpentyl carbamate]	105 °C
COc1ccc(/C=C/c2cccc(OC)c2O)cc1OC [2-[(E)-2-(3,4-Dimethoxyphenyl)vinyl]-6-methoxyphenol]	165 °C
CC(=O)Nc1ccccc1C(=O)O [2-acetamidobenzoic acid]	186 °C
